Patent US20230102554A1 (GB002, INC., priority 2019, published 2023)

What was measured:
[1] = molecular target: T1, Human PDGFRα, cytoplasmic domain (GST-PDGFRα) (Homo sapiens, UniProt P16234); experiment: Human PDGFRα biochemical inhibition assay (off-chip Mobility Shift Assay)
T1 construct: made in house

[2] = molecular target: T2, Human PDGFRβ, cytoplasmic domain (GST-PDGFRβ) (Homo sapiens, UniProt P09619); experiment: Human PDGFRβ biochemical inhibition assay (off-chip Mobility Shift Assay)
T2 construct: made in house
T2 sequence (P09619 with tags, fused parts or gaps): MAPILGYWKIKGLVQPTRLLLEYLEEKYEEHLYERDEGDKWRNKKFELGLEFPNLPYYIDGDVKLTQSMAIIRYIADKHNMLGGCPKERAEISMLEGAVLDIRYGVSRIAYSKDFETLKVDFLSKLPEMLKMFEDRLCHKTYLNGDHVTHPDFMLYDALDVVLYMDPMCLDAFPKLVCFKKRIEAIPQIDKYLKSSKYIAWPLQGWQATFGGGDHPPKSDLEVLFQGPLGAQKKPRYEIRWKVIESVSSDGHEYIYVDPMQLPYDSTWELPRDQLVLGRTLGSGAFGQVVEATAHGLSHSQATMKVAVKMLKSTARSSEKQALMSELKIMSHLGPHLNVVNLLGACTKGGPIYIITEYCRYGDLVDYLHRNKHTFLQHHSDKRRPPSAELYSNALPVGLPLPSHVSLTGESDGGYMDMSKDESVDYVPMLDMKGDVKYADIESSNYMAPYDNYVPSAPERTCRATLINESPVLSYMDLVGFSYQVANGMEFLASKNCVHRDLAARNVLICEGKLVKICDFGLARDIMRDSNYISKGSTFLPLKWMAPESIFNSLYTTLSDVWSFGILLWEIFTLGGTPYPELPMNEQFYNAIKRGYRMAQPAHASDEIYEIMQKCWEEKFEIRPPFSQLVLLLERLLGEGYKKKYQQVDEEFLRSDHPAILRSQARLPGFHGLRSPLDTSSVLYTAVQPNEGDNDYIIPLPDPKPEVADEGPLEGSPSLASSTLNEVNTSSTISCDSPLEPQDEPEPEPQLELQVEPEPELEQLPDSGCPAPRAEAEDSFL
In short: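 GST-tagged cytoplasmic domain (aa 557-1106) from baculovirus was incubated 1 h at room temperature with compound, CSKtide, ATP at Km and Mg²⁺ in HEPES buffer, pH 7.5. Phosphorylated and unphosphorylated peptide were separated by off-chip mobility shift, and the product ratio P/(P+S) gave percent inhibition.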

T1 sequence (P16234 550-1089 T674I): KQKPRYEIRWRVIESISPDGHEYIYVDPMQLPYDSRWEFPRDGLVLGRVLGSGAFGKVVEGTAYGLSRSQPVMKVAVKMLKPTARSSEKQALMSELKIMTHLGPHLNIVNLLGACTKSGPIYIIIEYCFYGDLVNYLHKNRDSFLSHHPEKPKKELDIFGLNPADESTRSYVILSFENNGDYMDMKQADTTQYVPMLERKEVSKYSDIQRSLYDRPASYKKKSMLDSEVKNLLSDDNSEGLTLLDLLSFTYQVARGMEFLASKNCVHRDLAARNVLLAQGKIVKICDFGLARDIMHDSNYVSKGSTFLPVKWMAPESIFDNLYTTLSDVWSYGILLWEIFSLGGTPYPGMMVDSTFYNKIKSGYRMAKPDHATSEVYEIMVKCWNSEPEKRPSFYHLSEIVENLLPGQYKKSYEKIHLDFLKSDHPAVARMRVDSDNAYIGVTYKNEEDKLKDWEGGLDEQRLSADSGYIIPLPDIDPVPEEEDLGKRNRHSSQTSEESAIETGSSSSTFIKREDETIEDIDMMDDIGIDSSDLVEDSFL

Structure (SMILES)	IC50 [1] [nM]	IC50 [2] [nM]
CCn1cc2ncc(N[C@@H](C)c3cccc(NC(=O)c4cnc(C)s4)c3)nc2n1 [Compound 294, (S)-N-(3-(1-((2-ethyl-2H-pyrazolo[3,4-b]pyrazin-6-yl)amino)ethyl)phenyl)-2-methylthiazole-5-carboxamide]	300 to 1000	300 to 1000
CCn1cc2ncc(N[C@@H](C)c3cccc(NC(=O)c4cnc(C(F)(F)F)s4)c3)nc2n1 [Compound 295, (S)-N-(3-(1-((2-ethyl-2H-pyrazolo[3,4-b]pyrazin-6-yl)amino)ethyl)phenyl)-2-(trifluoromethyl)thiazole-5-carboxamide]	< 300	< 300
CCn1cc2ncc(N[C@@H](C)c3cccc(NC(=O)c4cnc(C5CC5)s4)c3)nc2n1 [Compound 296, (S)-2-cyclopropyl-N-(3-(1-((2-ethyl-2H-pyrazolo[3,4-b]pyrazin-6-yl)amino)ethyl)phenyl)thiazole-5-carboxamide]	< 300	< 300
CCn1cc(C(=O)Nc2cccc([C@H](C)Nc3cnc4cn(CC)nc4n3)c2)cn1 [Compound 297, (S)-1-ethyl-N-(3-(1-((2-ethyl-2H-pyrazolo[3,4-b]pyrazin-6-yl)amino)ethyl)phenyl)-1H-pyrazole-4-carboxamide]	300 to 1000	300 to 1000
CCn1cc2ncc(N[C@@H](C)c3cccc(NC(=O)c4cnn(CCF)c4)c3)nc2n1 [Compound 298, (S)-N-(3-(1-((2-ethyl-2H-pyrazolo[3,4-b]pyrazin-6-yl)amino)ethyl)phenyl)-1-(2-fluoroethyl)-1H-pyrazole-4-carboxamide]	< 300	300 to 1000
CCn1cc2ncc(N[C@@H](C)c3cccc(NC(=O)c4cnn(C5CC5)c4)c3)nc2n1 [Compound 299, (S)-1-cyclopropyl-N-(3-(1-((2-ethyl-2H-pyrazolo[3,4-b]pyrazin-6-yl)amino)ethyl)phenyl)-1H-pyrazole-4-carboxamide]	< 300	300 to 1000
CCn1cc2ncc(N[C@@H](C)c3cccc(NC(=O)c4cnn(CC5CC5)c4)c3)nc2n1 [Compound 300, (S)-1-(cyclopropylmethyl)-N-(3-(1-((2-ethyl-2H-pyrazolo[3,4-b]pyrazin-6-yl)amino)ethyl)phenyl)-1H-pyrazole-4-carboxamide]	< 300	< 300
CCn1cc2ncc(N[C@@H](C)c3cccc(NC(=O)c4cnn(C(C)C)c4)c3)nc2n1 [Compound 301, (S)-N-(3-(1-((2-ethyl-2H-pyrazolo[3,4-b]pyrazin-6-yl)amino)ethyl)phenyl)-1-isopropyl-1H-pyrazole-4-carboxamide]	< 300	< 300
CCn1cc2ncc(N[C@@H](C)c3cc(NC(=O)c4ccc(C5CC5)nc4)ccc3F)nc2n1 [Compound 302, (S)-6-cyclopropyl-N-(3-(1-((2-ethyl-2H-pyrazolo[3,4-b]pyrazin-6-yl)amino)ethyl)-4-fluorophenyl)nicotinamide]	< 300	< 300
CCn1cc2ncc(N[C@@H](C)c3cc(NC(=O)c4ccc(OC(F)(F)F)nc4)ccc3F)nc2n1 [Compound 303, (S)-N-(3-(1-((2-ethyl-2H-pyrazolo[3,4-b]pyrazin-6-yl)amino)ethyl)-4-fluorophenyl)-6-(trifluoromethoxy)nicotinamide]	< 300	< 300
CCn1cc2ncc(N[C@@H](C)c3cc(NC(=O)c4ccc(OC(F)F)nc4)ccc3F)nc2n1 [Compound 304, (S)-6-(difluoromethoxy)-N-(3-(1-((2-ethyl-2H-pyrazolo[3,4-b]pyrazin-6-yl)amino)ethyl)-4-fluorophenyl)nicotinamide]	< 300	< 300
CCn1cc2ncc(N[C@@H](C)c3cccc(NC(=O)c4ccn(C(C)C)n4)c3)nc2n1 [Compound 305, (S)-N-(3-(1-((2-ethyl-2H-pyrazolo[3,4-b]pyrazin-6-yl)amino)ethyl)phenyl)-1-isopropyl-1H-pyrazole-3-carboxamide]	< 300	300 to 1000
